Data: patent US7598245B2 (Vertex Pharmaceuticals Incorporated, priority 2003, dated 2009)

Columns and labels:
Type in all cases: biochemical
[1] = biological target: T1, human Src kinase (Homo sapiens, UniProt P12931); assay: Src inhibition assay B: spectrophotometric (uv-vis) coupled enzyme assay; conditions: 100 μM ATP
T1 construct: 25 nM of recombinant human Src kinase
Experimental: The compounds are evaluated as inhibitors of human Src kinase using either a radioactivity-based assay or spectrophotometric assay.
Src Inhibition Assay B: Spectrophotometric Assay
The ADP produced from ATP by the human recombinant Src kinase-catalyzed phosphorylation of poly Glu-Tyr substrate is quantified using a coupled enzyme assay [Fox et al. Protein Sci. 1998, 7, 2249]. In this assay one molecule of NADH is oxidised to NAD for every molecule of ADP produced in the kinase reaction. The disappearance of NADH is conveniently followed at 340 nm.
The following are the final concentrations of the assay components: 0.025 M HEPES (pH 7.6), 10 mM MgCl2, 2 mM DTT, 0.25 mg/ml poly Glu-Tyr, and 25 nM of recombinant human Src kinase. Final concentrations of the components of the coupled enzyme system are 2.5 mM phosphoenolpyruvate, 200 μM NADH, 30 μg/ml pyruvate kinase and 10 μg/ml lactate dehydrogenase.
In a typical assay, all the reaction components with the exception of ATP are pre-mixed and aliquoted into assay plate wells. Inhibitors dissolved in DMSO are added to the wells to give a final DMSO concentration of 2.5%. The assay plate is incubated at 30° C. for 10 min before initiating the reaction with 100 μM ATP. The absorbance change at 340 nm with time, the rate of the reaction, is monitored on a molecular devices plate reader. The data of rate as a function of the inhibitor concentration is fitted to competitive inhibition kinetics model to get the Ki for the compound.

[2] = biological target: T2, PDK-1 (Homo sapiens, UniProt O15530); assay: PDK-1 inhibition, radioactive-phosphate incorporation assay; conditions: 40 μM ATP
T2 sequence (O15530 1-556): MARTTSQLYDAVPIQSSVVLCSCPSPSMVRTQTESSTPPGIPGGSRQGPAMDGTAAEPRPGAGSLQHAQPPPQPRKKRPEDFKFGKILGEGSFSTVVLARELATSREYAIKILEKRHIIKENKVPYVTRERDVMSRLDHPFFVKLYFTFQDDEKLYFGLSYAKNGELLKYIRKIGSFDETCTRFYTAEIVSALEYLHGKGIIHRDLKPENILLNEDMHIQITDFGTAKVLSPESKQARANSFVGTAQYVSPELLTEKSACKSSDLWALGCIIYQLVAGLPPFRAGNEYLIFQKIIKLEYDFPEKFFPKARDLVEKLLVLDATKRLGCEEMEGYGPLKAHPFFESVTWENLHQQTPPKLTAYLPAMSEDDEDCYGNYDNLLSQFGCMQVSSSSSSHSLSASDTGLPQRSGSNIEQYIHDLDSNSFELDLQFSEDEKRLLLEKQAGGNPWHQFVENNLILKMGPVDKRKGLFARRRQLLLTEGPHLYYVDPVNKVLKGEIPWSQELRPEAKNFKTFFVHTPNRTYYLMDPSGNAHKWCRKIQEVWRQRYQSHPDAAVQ
Experimental: Compounds were screened for their ability to inhibit PDK-1 using a radioactive-phosphate incorporation assay (Pitt and Lee, J. Biomol. Screen., (1996) 1, 47). Assays were carried out in a mixture of 100 mM HEPES (pH 7.5), 10 mM MgCl2, 25 mM NaCl, 2 mM DTT. Final substrate concentrations in the assay were 40 μM ATP (Sigma Chemicals) and 65 μM peptide (PDKtide, Upstate, Lake Placid, N.Y.). Assays were carried out at 30° C. and 25 nM PDK-1 in the presence of ˜27.5 nCi/μL of [γ-^32P]ATP (Amersham Pharmacia Biotech, Amersham, UK). An assay stock buffer solution was prepared containing all of the reagents listed above, with the exception of ATP, and the test compound of interest. 15 μl of the stock solution was placed in a 96 well plate followed by addition of 1 μl of 0.5 mM DMSO stock containing the test compound (final compound concentration 25 μM, final DMSO concentration […]). The plate was preincubated for about 10 minutes at 30° C. and the reaction initiated by addition of 4 μl ATP (final concentration 40 μM).
The reaction was stopped after 10 minutes by the addition of 100 μL 100 mM phosphoric acid, 0.01% Tween-20. A phosphocellulose 96 well plate (Millipore, Cat no. MAPHNOB50) was pretreated with 100 μL 100 mM phosphoric acid, 0.01% Tween-20 prior to the addition of the reaction mixture (100 μL). The spots were left to soak for at least 5 minutes, prior to wash steps (4×200 μL 100 mM phosphoric acid, 0.01% Tween-20). After drying, 20 μL Optiphase ‘SuperMix’ liquid scintillation cocktail (Perkin Elmer) was added to the well prior to scintillation counting (1450 Microbeta Liquid Scintillation Counter, Wallac).

[3] = biological target: T3, Aurora-2 (Homo sapiens, UniProt O14965); assay: Inhibition of AUR-2, coupled enzyme assay
T3 construct: addition of 10 μL of Aurora-2 stock solution to give a final concentration of 70 nM
T3 sequence (O14965 1-403): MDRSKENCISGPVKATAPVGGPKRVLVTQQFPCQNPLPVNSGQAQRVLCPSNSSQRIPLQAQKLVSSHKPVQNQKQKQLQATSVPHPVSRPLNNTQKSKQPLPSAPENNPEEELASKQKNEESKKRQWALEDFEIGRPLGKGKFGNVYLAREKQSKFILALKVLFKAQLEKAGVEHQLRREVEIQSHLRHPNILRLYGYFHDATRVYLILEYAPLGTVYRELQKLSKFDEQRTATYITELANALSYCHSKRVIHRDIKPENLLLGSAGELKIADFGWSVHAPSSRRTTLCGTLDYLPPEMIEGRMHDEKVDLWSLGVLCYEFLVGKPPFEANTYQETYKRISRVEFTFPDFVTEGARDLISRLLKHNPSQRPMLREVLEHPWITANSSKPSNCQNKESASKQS
Experimental: Compounds are screened in the following manner for their ability to inhibit Aurora-2 using a standard coupled enzyme assay (Fox et al (1998) Protein Sci 7, 2249). To an assay stock buffer solution containing 0.1M HEPES 7.5, 10 mM MgCl2, 1 mM DTT, 25 mM NaCl, 2.5 mM phosphoenolpyruvate, […], 30 mg/ml pyruvate kinase, 10 mg/ml lactate dehydrogenase, 40 mM ATP, and 800 μM peptide (LRRASLG, American Peptide, Sunnyvale, Calif.) is added a DMSO solution of a compound of the present invention to a final concentration of 30 μM. The resulting mixture is incubated at 30° C. for 10 min. The reaction was initiated by the addition of 10 μL of Aurora-2 stock solution to give a final concentration of 70 nM in the assay. The rates of reaction are obtained by monitoring absorbance at 340 nm over a 5 minute read time at 30° C. using a BioRad Ultramark plate reader (Hercules, Calif.). The Ki values are determined from the rate data as a function of inhibitor concentration.

[4] = biological target: T4, JAK-3 (Homo sapiens, UniProt P52333); assay: JAK3 inhibition assay (ELISA, Poly (Glu, Ala, Tyr) coated plates); conditions: 2 μM ATP
T4 sequence (P52333 1-1124): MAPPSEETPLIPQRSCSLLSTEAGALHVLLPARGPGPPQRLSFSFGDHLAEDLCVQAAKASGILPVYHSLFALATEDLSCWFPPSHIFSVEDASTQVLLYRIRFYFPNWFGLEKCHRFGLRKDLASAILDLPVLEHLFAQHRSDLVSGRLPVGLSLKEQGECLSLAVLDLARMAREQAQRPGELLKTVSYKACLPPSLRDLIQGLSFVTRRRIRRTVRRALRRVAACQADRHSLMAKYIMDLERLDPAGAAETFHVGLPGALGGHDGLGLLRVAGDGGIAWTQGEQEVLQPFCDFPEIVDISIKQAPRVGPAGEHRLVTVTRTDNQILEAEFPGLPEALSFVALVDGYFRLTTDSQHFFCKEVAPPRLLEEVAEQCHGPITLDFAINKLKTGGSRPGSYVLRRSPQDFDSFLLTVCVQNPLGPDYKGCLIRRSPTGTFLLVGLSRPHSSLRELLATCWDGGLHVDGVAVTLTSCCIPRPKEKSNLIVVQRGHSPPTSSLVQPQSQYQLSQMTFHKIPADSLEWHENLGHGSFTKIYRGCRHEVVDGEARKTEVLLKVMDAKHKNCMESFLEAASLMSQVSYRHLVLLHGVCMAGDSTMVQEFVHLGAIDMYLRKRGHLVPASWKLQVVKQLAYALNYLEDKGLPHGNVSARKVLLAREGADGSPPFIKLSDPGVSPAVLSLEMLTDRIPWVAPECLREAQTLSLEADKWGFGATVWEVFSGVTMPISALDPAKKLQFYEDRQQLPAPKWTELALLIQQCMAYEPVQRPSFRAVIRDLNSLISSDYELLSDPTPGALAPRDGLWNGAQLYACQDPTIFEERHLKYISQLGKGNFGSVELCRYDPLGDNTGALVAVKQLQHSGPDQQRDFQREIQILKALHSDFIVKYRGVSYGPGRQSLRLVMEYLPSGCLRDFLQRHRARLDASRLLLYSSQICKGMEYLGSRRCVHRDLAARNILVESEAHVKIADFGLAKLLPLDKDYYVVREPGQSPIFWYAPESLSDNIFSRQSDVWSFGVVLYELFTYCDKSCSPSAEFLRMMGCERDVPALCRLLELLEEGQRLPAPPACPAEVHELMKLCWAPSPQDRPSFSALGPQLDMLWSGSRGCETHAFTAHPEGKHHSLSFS
Experimental: Compound inhibition of JAK was assayed by the method described by G. R. Brown, et al, Bioorg. Med. Chem. Lett. 2000, vol. 10, pp 575-579 in the following manner. Into Maxisorb plates, previously coated at 4° C. with Poly (Glu, Ala, Tyr) 6:3:1 then washed with phosphate buffered saline 0.05% and Tween-(PBST), was added 2 μM ATP, 5 mM MgCl2, and a solution of compound in DMSO. The reaction was started with JAK enzyme and the plates incubated for 60 minutes at 30° C. The plates were then washed with PBST, 100 μL HRP-Conjugated 4G10 antibody was added, and the plate incubated for 90 minutes at 30° C. The plate was again washed with PBST, 100 μL TMB solution is added, and the plates were incubated for another 30 minutes at 30° C. Sulfuric acid (100 μL of 1M) was added to stop the reaction and the plate is read at 450 nm to obtain the optical densities for analysis to determine Ki values.

T1 sequence (P12931 whole entry): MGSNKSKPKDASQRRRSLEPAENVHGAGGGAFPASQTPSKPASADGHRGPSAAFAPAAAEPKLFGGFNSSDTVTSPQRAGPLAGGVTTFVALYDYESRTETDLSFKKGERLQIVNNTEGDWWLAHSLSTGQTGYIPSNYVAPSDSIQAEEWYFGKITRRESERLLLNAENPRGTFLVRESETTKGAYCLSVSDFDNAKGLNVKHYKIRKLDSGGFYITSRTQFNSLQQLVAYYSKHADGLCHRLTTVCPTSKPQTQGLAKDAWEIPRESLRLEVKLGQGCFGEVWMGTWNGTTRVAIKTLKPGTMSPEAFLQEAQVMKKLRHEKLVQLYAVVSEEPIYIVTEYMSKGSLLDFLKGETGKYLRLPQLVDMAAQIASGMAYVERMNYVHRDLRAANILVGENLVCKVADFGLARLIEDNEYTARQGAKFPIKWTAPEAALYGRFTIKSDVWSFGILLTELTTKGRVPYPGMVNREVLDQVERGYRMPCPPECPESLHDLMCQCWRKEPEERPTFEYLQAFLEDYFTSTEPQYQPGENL

SMILES | Ki [1] [nM] | Ki [2] [nM] | Ki [3] [nM] | Ki [4] [nM]
c1ccc(Nc2ncn(-c3cc(N[C@H]4CCCNC4)ncn3)n2)cc1 [Compound I-103, [6-(3-Phenylamino-[1,2,4]triazol-1-yl)-pyrimidin-4-yl]-piperidin-3-yl-amine] | < 500 | < 1000 | 100 to 1000 | 
NS(=O)(=O)c1ccc(Nc2ncn(-c3ccnc(N[C@H]4CCCNC4)c3)n2)cc1 [Compound I-104, 3-(S)-{4-[3-(4-Sulfamoyl-phenylamino)-[1,2,4]triazol-1-yl]-pyridin-2-ylamino}-piperidine] |  | < 1000 |  | 
CCCN(CC1CC1)c1cc(-n2cnc(Nc3ccccc3)n2)ccn1 [Compound I-125, cyclopropylmethyl-[4-(3-phenylamino-[1,2,4]triazol-1-yl)-pyridin-2-yl]-propyl-amine] | > 1000 |  |  | 
CC1CCCCN1c1cc(-n2cnc(Nc3ccccc3)n2)ccn1 (centres unmarked) [Compound I-126, [1-(2-methyl-3,4,5,6-tetrahydro-2H-[1,2′]bipyridinyl-4′-yl)-1H-[1,2,4]triazol-3-yl]-phenyl-amine] | > 1000 |  |  | 
CN(c1cc(-n2cnc(Nc3ccccc3)n2)ccn1)C1CCCCC1 [Compound I-133] | > 1000 |  |  | > 1000
